Experimental data from patent US20070025930A1, “Dibenzoilmethane derivative compounds, the use thereof in the form of photoactivable solar filters and cosmetic compositions containing said compounds” (UNIVERSITE PAUL SABATIER TOULOUSE 3, priority 2003, published 2007).

Assays:
[1] = background statement on the reference screening agent; cited from earlier work
[2] = Tests of stability towards UV radiation: water-in-oil preparation on a quartz slide, UVA absorbance monitored under solar irradiation; assay type: physicochemical; settings: for Variation in the absorbance at 356 nm: water-in-oil preparation on quartz slide; for decrease in UVA absorbance: preparation with 1% by mass of screening agents; for decrease of the absorbance at 356 nm: mean UV flux 4 mW/cm^2; for photostability compared with Parsol 1789: solar irradiation of preparations
From the text: By way of example, the changes under irradiation of a base preparation (water-in-oil emulsion) containing the compounds obtained in the above examples, i.e. compound C10 and compound O10, are compared with that of the same preparation containing Parsol 1789 (mass % equivalent for each screening agent).
By way of example, the chosen preparations may be composed as follows:
Glycasil L 0.19%, butyl paraben 0.3%, beeswax 4%, PEG-30 dipolyhydroxystearate 3%, dicapryl carbonate 10%, polyglyceryl-3-diisostearate 1.5%, water 78.64%, xanthan gum 1%, Na2EDTA 0.2%, NaCI 1%; methyl paraben 0.17%
To this common base is added, depending on the case, the compounds C10 or O10 or Parsol 1789 in equivalent mass %. 15 to 20 mg of these preparations are spread onto a quartz slide and the UVA absorbance of the slide is monitored over time under solar irradiation (in the month of June at 43° latitude north between 13.00 h and 16.00 h, mean flux of the solar UV radiation: 4 mW/cm^2, Oriel 70380 UV Radiometer—response between 280 nm and 400 nm with a maximum at 370 nm)). The absorbance at 356 nm of the plate with Parsol 1789 decreases by 51% in 1 hour and by 73% in 2 hours. In the same time, the plates that received compound O10 have an absorbance that increases by 16% in 1 hour and 19% in 2 hours. […]

[3] = UV absorption (absorption maximum, molar extinction coefficient) in solution; assay type: physicochemical
From the text: As an illustration of these ultraviolet-absorbing capacities, measurements were taken for two dibenzoylmethane derivatives according to the invention: • for a compound of formula (I) in which R1, R′1, R2, R′2, R3, R′3, R4, R′4 and R′5 each represent a hydrogen atom and R5 represents a saturated linear acyclic carbon-based chain containing 10 carbon atoms, the absorption maximum is (in solution in acetonitrile) at 263 nm with a molar extinction coefficient of 20 000 I.cm^−1.mol^−1. This compound will be referred to hereinbelow as compound C10; • for a compound of formula (I) in which R1, R′1, R2, R′2, R3, R′3, R4, R′4 and R5 each represent a hydrogen atom and R′5 represents a saturated linear acyclic carbon-based chain containing 10 carbon atoms, the absorption maximum (in solution in acetonitrile) is at 302 nm with a molar extinction coefficient of 17 000 I.cm^−1.mol^−1.
This is likewise the case for compound C10. Furthermore, in organized medium, these two compounds, subjected to ultraviolet radiation, undergo a shift of their maximum absorbance wavelength from UVB to UVA, thus causing the same effect as organization of the system. As a result, the maximum shift of the absorption bands towards UVA is obtained by placing these compounds in organized medium under irradiation, as is the case for an antisun cosmetic preparation under the normal conditions of its use. Irradiation of the preparation amplifies the phenomenon induced by the medium in which the compounds are present. There are therefore two screening molecules present, the absorbing power of which appears in its entirety only when they are subjected to ultraviolet exposure, in an organized medium. The protection capacity of a preparation containing them should thus increase during exposure, rather than decrease, which is the case for preparations containing Parsol 1789 as sole UV-screening agent. This increase in the absorbance at the start of exposure makes it possible to maintain a maximum level of protection for longer.
The NMR spectra were acquired using a Bruker ARX 400 MHz machine. […]

Row | Variation in the absorbance at 356 nm ([2]; Irradiation 1 hour solar UV) | Variation in the absorbance at 356 nm ([2]; Irradiation 2 hours solar UV) | decrease in UVA absorbance ([2]; after 2 hours solar irradiation) | decrease of the absorbance at 356 nm ([2]; in 1 hour solar irradiation) | decrease in UVA absorbance ([2]; in 1 hour solar irradiation) | decrease of the absorbance at 356 nm ([2]; in 2 hours solar irradiation) | absorbance change during the first hour of exposure to sunlight ([2]; first hour of solar irradiation) | decrease of the absorbance during the second hour ([2]; relative to the maximum achieved after 1 hour of irradiation) | photostability compared with Parsol 1789 [2] | absorption maximum ([3]; in solution in acetonitrile) | molar extinction coefficient ([3]; in solution in acetonitrile, at the absorption maximum) | absorption maximum in the UVA range (solvatochromy) ([3]; organized solvents, e.g. micellar solutions of sodium dodecyl sulfate) | Structure (SMILES) | maximum absorption efficacy (wavelength) [1] | absorbance after 2 hours of exposure to sunlight versus initial absorbance ([2]; 2 hours of solar irradiation, compared with before irradiation)
1 | −51% | −73% | 73% | 51% | 51% | 73% |  |  |  |  |  |  | COc1ccc(C(=O)CC(=O)c2ccc(C(C)(C)C)cc2)cc1 [Parsol 1789, 4-tert-butyl-4′-methoxydibenzoylmethane, reference compound] | about 340 nm | 
2 | +400% | +264% |  |  |  |  | increases greatly | 27% | much more photostable than Parsol 1789 | 263 nm | 20 000 I.cm^−1.mol^−1 | about 360 nm | CCCCCCCCCCC(C(=O)c1ccc(OC)cc1)C(=O)c1ccc(C(C)(C)C)cc1 (centres unmarked) [compound C10, 3-(4-tert-butylphenyl)-2-decanyl-1-(4-methoxyphenyl)propane-1,3-dione] |  | remains markedly higher than its initial absorbance
3 |  |  |  |  |  |  |  |  | much more photostable than Parsol 1789 |  |  |  | CCCCCCCCCCO/C(=C\C(=O)c1ccc(OC)cc1)c1ccc(C(C)(C)C)cc1 [compound O10, 3-(4-tert-butylphenyl)-3-decanoxy-1-(4-methoxy-phenyl) prop-2-ene-1-one] |  | 
